These results are taken from US9351931B2, “Pharmaceutical preparation for tumor chemotherapy and method for producing the same” (HUBEI SOUNDNY BIOTECHNOLOGY CO., LTD., priority 2012, dated 2016).

Test [1] deals with A2780 human ovarian carcinoma cells. The test is described as follows: Co-culture killing of human ovarian carcinoma cells (Example 4). It counts as cell-based. The conditions noted are these: pure drug, 100 μg cisplatin to 5×10^6 A2780 cells, 72 hours; FIG. 4E. As to the method: (§1) the third group of H22 mouse hepatoma cells and the third group of the A2780 human ovarian carcinoma cells are left without any treatment.
(§2) 4) half of the micro-particles taken from the above test group, and half of the cell vesicles taken from the control group are respectively co-cultured with 5×10^4 tumor cells taken from the third group of tumor cells of different types for 72 hours within a 24-pore plate, the death of the tumor cells is observed, wherein the cell vesicles that are co-cultured with the tumor cells are the cell vesicles derived from the same type of tumor cells, and the micro-particles that are co-cultured with the tumor cells are the micro-particles formed after the cell vesicles derived from the same type of tumor cells have the chemotherapeutic drug wrapped therein;

Another test deals with H22 mouse hepatoma cells. The test is described as follows: Co-culture killing of mouse hepatoma cells (Example 4). It is filed as cell-based. The conditions noted are these: pure drug, 10 μg methotrexate to 5×10^6 H22 cells, 72 hours; FIG. 4B. As to the method: as §1, §2

For the compound `N.N.[Cl][Pt][Cl]` [cisplatin], the “death of the tumor cells” value in test [1] was “there are still certain amount of tumor cells survived”.

As to `CN(Cc1cnc2nc(N)nc(N)c2n1)c1ccc(C(=O)N[C@@H](CCC(=O)O)C(=O)O)cc1` [methotrexate], the “death of the tumor cells” value in the test with H22 mouse hepatoma cells is “there are still certain amount of tumor cells survived”.
